What all share (format): in vivo
Experiment [1] relates to induced type 2 diabetic mice. Nature of the experiment: Water intake test in induced type 2 diabetic mice. Particulars: high dose 10 mg/kg and low dose 2.5 mg/kg; 40-day period; vs induction treatment group STZ. The procedure: (§1) Male ICR mice (19-21 g) were obtained from BioLASCO Taiwan Co., Ltd. The mice were kept in the animal center of Transworld University at a controlled temperature of 22±2° C., relative humidity 55±5%, and with 12 hour light/12 hour dark cycles for 1 week before the experiment. For the induction of type 2 diabetic mice (induction treatment group STZ), Nicotinamide (210 mg/kg b.w.) (Sigma, Saint Louis, Mo., USA), dissolved in saline was intraperitoneally injected into mice. After 15 minutes, the mice were administered with […] (STZ) (Sigma, 180 mg/kg bw, ip injection), which was dissolved in citrate buffer (pH 4.5) before use. The control group received both vehicles. During the experimental period, the animals' food intake and body weight were monitored once a week. […]
In general, diabetic patients usually have clinical symptoms of “drinking more water.” In this experimental example, the water intake was recorded in a 40-day period for the blank group Sham, the induction treatment group STZ, Neoandrographolide low dose group NeoL (2.5 mg/kg), Neoandrographolide middle dose group NeoM (5.0 mg/kg) and Neoandrographolide high dose group NeoH (10 mg/kg).

The subject of experiment [2] is induced type 2 diabetic mice. Briefly: Oral glucose tolerance test. Conditions: NeoL 2.5, NeoM 5.0, NeoH 10 mg/kg; within 0 to 3 hours after glucose 2 g/kg; vs induction treatment group STZ. The procedure:
as §1, with “week. In addition, the dosage of the Neoandrographolide (Sigma-Aldrich Chemical Co., Missouri, USA) of the present invention is: NeoL (low dose group of Neoandrographolide): Neoandrographolide 2.5 mg/kg; NeoM (middle dose group of Neoandrographolide): Neoandrographolide 5.0 mg/kg; NeoH (high dose group of Neoandrographolide): Neoandrographolide 10 mg/kg. The above active ingredient was dissolved in Tween 20 and adjusted to a 0.5% methylcellulose (CMC) solution. The blank group (Sham) was normal mice without induction treatment.” for “week.”

The subject of experiment [3] is induced type 2 diabetic mice. Briefly: Fasting blood glucose assay. Particulars: NeoL 2.5, NeoM 5.0, NeoH 10 mg/kg; seven days after administration; vs induction treatment group STZ. The procedure: as §1
In this experimental example, the fasting blood glucose values were recorded in a 42-day period for the blank group Sham, the induction treatment group STZ, Neoandrographolide low dose group NeoL (2.5 mg/kg), Neoandrographolide middle dose group NeoM (5.0 mg/kg) and Neoandrographolide high dose group NeoH (10 mg/kg).

The subject of experiment [4] is induced type 2 diabetic mice. Briefly: Glycated hemoglobin (HbA1c) assay. Conditions: NeoL 2.5, NeoM 5.0, NeoH 10 mg/kg; after 42 days of continuous administration; vs induction treatment group STZ. The procedure: as §1
In this experimental example, the glycated hemoglobin (HbA1c) values of mice were recorded in a 42-day period after continuous administration for the blank group Sham, the induction treatment group STZ, Neoandrographolide low dose group NeoL (2.5 mg/kg), Neoandrographolide middle dose group NeoM (5.0 mg/kg) and Neoandrographolide high dose group NeoH (10 mg/kg).

The subject of experiment [5] is induced type 2 diabetic mice. Nature of the experiment: Aspartate aminotransferase (AST) assay. The procedure: (§2) Male ICR mice (19-21 g) were obtained from BioLASCO Taiwan Co., Ltd. The mice were kept in the animal center of Transworld University at a controlled temperature of 22±2° C., relative humidity 55±5%, and with 12 hour light/12 hour dark cycles for 1 week before the experiment. For the induction of type 2 diabetic mice (induction treatment group STZ), Nicotinamide (210 mg/kg b.w.) (Sigma, Saint Louis, Mo., USA), dissolved in saline was intraperitoneally injected into mice. After 15 minutes, the mice were administered with […] (STZ) (Sigma, 180 mg/kg bw, ip injection), which was dissolved in citrate buffer (pH 4.5) before use. The control group received both vehicles. During the experimental period, the animals' food intake and body weight were monitored once a week. In addition, the dosage of the Neoandrographolide (Sigma-Aldrich Chemical Co., Missouri, USA) of the present invention is: NeoL (low dose group of Neoandrographolide): Neoandrographolide 2.5 mg/kg; NeoM (middle dose group of Neoandrographolide): Neoandrographolide 5.0 mg/kg; NeoH (high dose group of Neoandrographolide): Neoandrographolide 10 mg/kg. The above active ingredient was dissolved in Tween 20 and adjusted to a 0.5% methylcellulose (CMC) solution. The blank group (Sham) was normal mice without induction treatment.
(§3) After completion of the test, surviving animals were sacrificed; before necropsy, blood samples were collected for serum biochemistry.
In this experimental example, the AST index of mice were recorded in a 42-day period after continuous administration for the blank group Sham, the induction treatment group STZ, Neoandrographolide low dose group NeoL (2.5 mg/kg), Neoandrographolide middle dose group NeoM (5.0 mg/kg) and Neoandrographolide high dose group NeoH (10 mg/kg).

For experiment [6], the system named is induced type 2 diabetic mice. Briefly: Triglyceride assay. The procedure: as §2, §3
(§4) In this experimental example, the triglyceride values and the total cholesterol in blood of mice were recorded in a 42-day period after continuous administration for the blank group Sham, the induction treatment group STZ, Neoandrographolide low dose group NeoL (2.5 mg/kg), Neoandrographolide middle dose group NeoM (5.0 mg/kg) and Neoandrographolide high dose group NeoH (10 mg/kg).

Experiment [7] deals with induced type 2 diabetic mice. Briefly: Total cholesterol assay. The procedure:
as §1, §4

Experiment [8] concerns induced type 2 diabetic mice. Nature of the experiment: Uric acid assay. Particulars: NeoL 2.5, NeoM 5.0, NeoH 10 mg/kg; after 42 days of continuous administration; vs induction treatment group STZ. The procedure: as §1
In this experimental example, the serum uric acid index of mice was recorded in a 42-day period after continuous administration for the blank group Sham, the induction treatment group STZ, Neoandrographolide low dose group NeoL (2.5 mg/kg), Neoandrographolide middle dose group NeoM (5.0 mg/kg) and Neoandrographolide high dose group NeoH (10 mg/kg).

In experiment [9] the test system is induced type 2 diabetic mice. Nature of the experiment: Serum creatinine assay. Conditions: NeoL 2.5, NeoM 5.0, NeoH 10 mg/kg; after 42 days of continuous administration; vs induction treatment group STZ. The procedure:
as §1
In this experimental example, the serum creatine index of mice was recorded in a 42-day period after continuous administration for the blank group Sham, the induction treatment group STZ, Neoandrographolide low dose group NeoL (2.5 mg/kg), Neoandrographolide middle dose group NeoM (5.0 mg/kg) and Neoandrographolide high dose group NeoH (10 mg/kg).

The mark [10] stands for this setting: NeoL 2.5, NeoM 5.0, NeoH 10 mg/kg, after 42 days of continuous administration, vs induction treatment group STZ.

The values below come from patent US11318153B2, “Method of using Neoandrographolide for lowering blood sugar, lowering blood lipid, improving liver function and improving renal function” (Bioalpha International Sdn. Bhd., priority 2018, dated 2022).

For `C=C1CC[C@@H]2[C@](C)(CO[C@@H]3O[C@H](CO)[C@@H](O)[C@H](O)[C@H]3O)CCC[C@@]2(C)[C@@H]1CCC1=CCOC1=O` [Neoandrographolide], the “amount of water intake” value in experiment [1] is reported as “significantly reduced”. For the same molecule, the “blood glucose levels in oral glucose tolerance test” value in experiment [2] is given as “significantly lower”. In addition, in experiment [3], the “fasting blood glucose values” is “significantly lower”. In addition, the HbA1c values entry in [4] is on record as “significantly lower”. The “AST values, low dose group” value in experiment [5] (NeoL 2.5 mg/kg, 42 days, compared among the three dose groups) is given as “most significant reduction”. Moreover, the AST index entry in experiment [5] (setting [10]) is listed as “slightly lower”. For the same molecule, the “minimum effective dose, improving liver function (AST)” value in experiment [5] (judged from the experiment) is given as “around 2.5 mg/kg”. Also, the “dose dependence of triglyceride-lowering effect” value in [6] (2.5 to 10 mg/kg, 42 days) is listed as “dose-dependent”. In addition, in [6] (42 days), the “minimum effective dose, triglyceride-lowering effect” value is recorded as 2.5 mg/kg. Further, the triglyceride values result in experiment [6] (setting [10]) is “lower”. In addition, the “triglyceride values, middle and high dose groups” value in experiment [6] (NeoM 5.0 mg/kg and NeoH 10 mg/kg, 42 days, compared among the three dose groups) is given as “lowest triglyceride values”. The “minimum effective dose, lowering total cholesterol in the blood” value in [7] (42 days) was 2.5 mg/kg. Moreover, in experiment [7] (setting [10]), the “total cholesterol values in the blood” value is “lower”. In experiment [8], the “serum uric acid index” value is given as “significantly lower”. The serum creatinine index entry in [9] was “significantly lower”.
